# Reference: patent US20220233556A1, “COMPOSITIONS AND METHODS FOR TREATING OPHTHALMIC CONDITIONS” (Medicon Pharmaceuticals, Inc., priority 2017, published 2022)
# Read-outs that look alike come from different tables or passages of the source.
# Columns and labels:
# [1] = Rabbit ocular PK study of PS emulsion (2% PS); assay type: in vivo, New Zealand rabbits; conditions: 2% PS emulsion
# Protocol: A formulation includes 2% PS; 5% Propylene glycol, 10% Mineral oil, 4% Tween 60, 4% Tween 80, 10% (2-hydroxypropyl)-β-cyclodextrin (HP-β-CD). Preparation method (2 mL scale): Oil phase: weight PS into glass vial, add propylene glycol, stir at 50° C. to obtain a clear solution. Then add mineral oil, stir to obtain a clear solution. Water phase: Dissolve HP-β-CD, […] and Tween 80 into water. Add water phase into oil phase, probe-sonicate for 5 sec, 8 times, with 5 sec intervals. Resultant emulsion is filtrated through 0.22 μm filter.
# Rabbit ocular pharmacokinetic (PK) study: PS was administered to New Zealand rabbits topically to the eye; as three 25 μL eye drops, 5 min apart. Rabbits were euthanized at eight specified time points between 0.25 to 16 h, ocular tissues were dissected and PS was extracted with acetonitrile and its tissue levels as well as those of its metabolites were determined by HPLC as described (Xie G. et al., Br J Pharmacol 165:2′52-2166; 2012).
# [2] = PS levels in ocular tissues after topical gellan gum-based in-situ gel; assay type: in vivo, New Zealand white rabbits; conditions: New Zealand white, rabbit, gellan gum 0.5% in-situ gel, 2.4~3% PS, eye drops
# Protocol: Composition: 2.4˜3% PS; 0.5% Gellan gum; 5% Vitamin E TPGS; 10% (2-hydroxypropyl)-β-cyclodextrin. Preparation Method: A Gellan gum solution was prepared by adding a certain amount of gellan gum to deionized water and heating the mixture to 90° C. with fast stirring (500 rpm). Once completely dissolved, the solution was filtered through a 0.22 μm filter. Then, PS and additional excipients were added to the system to achieve the above concentrations and stirred at 50° C. at 500 rpm for 30 minutes to allow complete dissolution.
# Results: The above PS formulation was administered topically as eye drops to the eyes of New Zealand white rabbits. The levels of PS in ocular tissues at 2 h later were determined by HPLC.
# [3] = Ocular PK study of PS nanoparticles (mPEG-PLA), topical eye drops; assay type: in vivo, New Zealand white rabbits; design: AUC(0-t) / AUC0-16h, cornea / AUC0-16h, conjunctiva: concentration or dose not given beside the values; conditions: for AUC(0-t) / Cmax: New Zealand white, rabbit, topical or ocular
# Protocol: Composition: ˜3.0-3.5% PS, 96.5˜97% methoxy poly(ethylene glycol)-poly(lactide) (mPEG-PLA).
# Preparation Method: Oil phase: 150 mg of PS and 1 g of PEG-PLA (Akina, Inc) were dissolved in 20 mL dichloromethane (DCM). Water phase: 365 mg of sodium cholate were dissolved in 60 ml of purified water. 5 mL of the oil phase was gently added into 15 mL of the water phase in a 50 mL Eppendorf conical tube. To create an emulsion, we used robe sonication for 2 min at 75% output (Branson 150, Fisher Scientific™, USA); the watt output was 12-13. The emulsion was transferred into a 100 mL beaker and stirred overnight at 600 rpm in a chemical hood until the DCM was fully evaporated. This was followed by centrifugation at 14,000 rpm for 1 h (Dupont, RC-5C). Then, the supernatant was transferred to another tube into which 3 mL of PBS were added to resuspend the nanoparticles. The nanoparticle solution was centrifuged for 6-7 seconds to remove aggregates. This supernatant was the final preparation.
# Ocular PK study: PS formulated in nanoparticles as above was administered topically as eye drops to New Zealand white rabbits. The biodistribution of PS in ocular tissues at the indicated time points post administration was determined by HPLC.
# [4] = Biodistribution of PS nanoparticles after intravitreal injection; assay type: in vivo, New Zealand white rabbits; conditions: New Zealand white, rabbit
# Protocol: Biodistribution of PS after intravitreal injection: PS formulated in nanoparticles as above was injected directly into the vitreous of New Zealand white rabbits. The biodistribution of PS in ocular tissues at the indicated time points post administration was determined by HPLC.
# [5] = Biodistribution of PS in human cadaveric eyes (ex vivo), PS HP-β-CD solution; assay type: in vitro ADME; conditions: human eye ex vivo
# Protocol: Human cadaveric eyes were obtained through the Lions Eye Bank for Long Island, Valley Stream, N.Y. They were preserved on ice and used within 2 h from removal from the donors.
# In another similar study, the anterior surface of the human eye was brought into direct contact with a PS HP-β-CD solution (PS concentration at 0.5%, 2.0% and 3.3%) and incubated for 10 min at 37° C. The eye was then rinsed with 10% dimethylsulfoxide (DMSO) to remove residual PS from the surface of the eye and incubated in PBS for 60 min. […] At the specified times, ocular tissues were dissected and PS levels determined by HPLC.
# [6] = three 25 μL eye drops, PS and its metabolites
# [7] = aqueous humor, other: intravitreal, 2% PS Nanoparticle Soln., read-out: PS in Aqueous humor
# [8] = cornea, other: intravitreal, 0.2% PS Nanoparticle Soln., read-out: PS in Cornea
# [9] = cornea, other: intravitreal, 2% PS Nanoparticle Soln., read-out: PS in Cornea
# [10] = retina, other: intravitreal, 0.2% PS Nanoparticle Soln., read-out: PS in Retina
# [11] = retina, other: intravitreal, 2% PS Nanoparticle Soln., read-out: PS in Retina
# [12] = sclera, other: intravitreal, 2% PS Nanoparticle Soln., read-out: PS in Sclera
# [13] = vitreous body, other: intravitreal, 0.2% PS Nanoparticle Soln., read-out: PS in Vitreous body
compound,measurement,setting,value
"CCOP(=O)(OCC)OCCCCOC(=O)CC1=C(C)/C(=C/c2ccc([S+](C)[O-])cc2)c2ccc(F)cc21 (centres unmarked) [PS, phosphosulindac]",PS in the retina,[1]; eye drops,no PS was detected
same,"Cmax, aqueous humor",[1]; [6],0.9 μm
same,"Cmax, conjunctiva",[1]; [6],33.6 μm
same,"Cmax, cornea",[1]; [6],85.4 μm
same,AUC(0-t),"[1]; New Zealand, rabbit, iris and ciliary body, topical or ocular, eye drops, read-out: AUC0-16 h in the iris and ciliary body",< 4 µM·h
same,concentration at 2 h,"[2]; aqueous humor, read-out: PS in Aqueous humor",1.2 µM
same,concentration at 2 h,"[2]; conjunctiva, read-out: PS in Conjunctiva",24.1 µM
same,concentration at 2 h,"[2]; cornea, read-out: PS in Cornea",72 µM
same,AUC(0-t),"[3]; aqueous humor, read-out: AUC0-16 h, Aqueous humor",3.4 µM·h
same,Cmax,"[3]; aqueous humor, read-out: Cmax, Aqueous humor",2.6 µM
same,AUC(0-t),"[3]; ciliary body, read-out: AUC0-16 h, Ciliary body",3.6 µM·h
same,Cmax,"[3]; ciliary body, read-out: Cmax, Ciliary body",2.6 µM
same,AUC(0-t),"[3]; conjunctiva, read-out: AUC0-16 h, Conjunctiva",61.7 µM·h
same,Cmax,"[3]; conjunctiva, read-out: Cmax, Conjunctiva",26.7 µM
same,AUC(0-t),"[3]; cornea, read-out: AUC0-16 h, Cornea",156 µM·h
same,Cmax,"[3]; cornea, read-out: Cmax, Cornea",101 µM
same,AUC(0-t),"[3]; iris, read-out: AUC0-16 h, Iris",13.6 µM·h
same,Cmax,"[3]; iris, read-out: Cmax, Iris",5.2 µM
same,AUC(0-t),"[3]; sclera, read-out: AUC0-16 h, Sclera",3.3 µM·h
same,Cmax,"[3]; sclera, read-out: Cmax, Sclera",2.1 µM
same,"Cmax, conjunctiva",[3]; PS and its metabolites,26.7 µM
same,"Cmax, cornea",[3]; PS and its metabolites,101.3 μm
same,concentration at 0.5 h,"[4]; aqueous humor, other: intravitreal, 0.2% PS Nanoparticle Soln., read-out: PS in Aqueous humor",0 µM
same,concentration at 0.5 h,[4]; [7],0 µM
same,concentration at 1 h,[4]; [7],1.3 µM
same,concentration at 0.5 h,[4]; [8],23.5 µM
same,concentration at 1 h,[4]; [8],22.4 µM
same,concentration at 0.5 h,[4]; [9],187 µM
same,concentration at 1 h,[4]; [9],147 µM
same,concentration at 0.5 h,[4]; [10],187 µM
same,concentration at 1 h,[4]; [10],109 µM
same,concentration at 0.5 h,[4]; [11],376 µM
same,concentration at 1 h,[4]; [11],220 µM
same,concentration at 0.5 h,"[4]; sclera, other: intravitreal, 0.2% PS Nanoparticle Soln., read-out: PS in Sclera",39.8 µM
same,concentration at 0.5 h,[4]; [12],224 µM
same,concentration at 1 h,[4]; [12],180 µM
same,concentration at 0.5 h,"[4]; vitreous body, other: intravitreal injection, 2 % PS (nanoparticle solution; injected volume not stated), 2% PS Nanoparticle Soln., read-out: PS in Vitreous body",125 µM
same,concentration at 0.5 h,[4]; [13],198 µM
same,concentration at 1 h,[4]; [13],56.2 µM
same,concentration at 1 h,"[4]; vitreous body, other: intravitreal, 2% PS Nanoparticle Soln., read-out: PS in Vitreous body",34 µM
same,PS in Aqueous,[5]; 0.5% PS HP-β-CD solution,2.4 µM
same,PS in Lens,[5]; 0.5% PS HP-β-CD solution,0.6 µM
same,PS in Retina,[5]; 0.5% PS HP-β-CD solution,2.9 µM
same,PS in Vitreous,[5]; 0.5% PS HP-β-CD solution,0.3 µM
same,PS in Lens,[5]; 2.0% PS HP-β-CD solution,1.4 µM
same,PS in Lens,[5]; 3.3% PS HP-β-CD solution,1.9 µM
same,PS in Vitreous,[5]; 3.3% PS HP-β-CD solution,4.3 µM
